Values belong to the molecule of their own block, whether it stands above or below them.
Tests used:
Type in all cases: cell-based
M1 muscarinic receptor = molecular target: T1, M1 muscarinic receptor (Homo sapiens, UniProt P11229); test: Functional mobilization of intracellular calcium (FLIPR), M1-CHO cells; conditions: for Emax: 100% efficacy = maximum response obtained with the Carbachol control; for M1 Activity: M1-CHO cells, calcium mobilization (FLIPR)
T1 construct: expressed in transfected cells; host or cells: CHO (M1-CHO)
T1 sequence (P11229 1-460): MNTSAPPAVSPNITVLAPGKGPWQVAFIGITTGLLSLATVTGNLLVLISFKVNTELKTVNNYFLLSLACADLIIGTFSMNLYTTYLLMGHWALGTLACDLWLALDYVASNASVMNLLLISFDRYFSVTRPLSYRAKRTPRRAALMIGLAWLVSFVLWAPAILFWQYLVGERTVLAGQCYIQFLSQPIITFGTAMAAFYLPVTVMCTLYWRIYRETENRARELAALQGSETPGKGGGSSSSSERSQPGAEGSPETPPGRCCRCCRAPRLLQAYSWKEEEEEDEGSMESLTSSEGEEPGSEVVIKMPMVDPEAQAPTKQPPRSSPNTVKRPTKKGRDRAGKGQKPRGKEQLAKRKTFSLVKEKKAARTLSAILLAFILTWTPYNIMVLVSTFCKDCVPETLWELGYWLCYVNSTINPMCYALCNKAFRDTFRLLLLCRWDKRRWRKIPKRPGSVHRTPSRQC
Outline: (§1)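 CHO cells expressing human M1–M4 receptors loaded with Fluo-3 AM or Calcium 3 dye (1 mM probenecid, pH 7.4); 0.5% DMSO final. Agonist mode: compound added directly; antagonist mode: 15 min pre-incubation or co-application, then carbachol at EC80. Fluorescence read 60 s on FLIPR; efficacy relative to carbachol maximum.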

M2 muscarinic receptor = molecular target: T2, M2 muscarinic receptor (Homo sapiens, UniProt P08172); test: Functional mobilization of intracellular calcium (FLIPR), M2-CHO cells; conditions: for Emax: 100% efficacy = maximum response obtained with the Carbachol control; for M2 Activity: M2-CHO cells, calcium mobilization (FLIPR)
T2 construct: expressed in transfected cells; host or cells: CHO (M2-CHO)
T2 sequence (P08172 1-466): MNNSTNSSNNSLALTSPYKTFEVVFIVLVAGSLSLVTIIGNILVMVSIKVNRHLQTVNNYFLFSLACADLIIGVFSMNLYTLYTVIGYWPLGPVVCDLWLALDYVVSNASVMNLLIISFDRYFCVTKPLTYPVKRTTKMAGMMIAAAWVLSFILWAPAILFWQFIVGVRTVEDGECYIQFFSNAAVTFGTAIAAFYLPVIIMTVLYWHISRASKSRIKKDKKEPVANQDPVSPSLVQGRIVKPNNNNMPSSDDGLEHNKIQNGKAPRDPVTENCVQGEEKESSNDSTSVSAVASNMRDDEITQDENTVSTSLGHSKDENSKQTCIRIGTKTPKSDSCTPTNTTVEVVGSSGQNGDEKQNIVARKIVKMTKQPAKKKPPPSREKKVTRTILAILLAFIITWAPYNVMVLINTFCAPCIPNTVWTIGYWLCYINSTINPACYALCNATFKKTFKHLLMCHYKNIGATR
Outline: as §1

M3 muscarinic receptor = molecular target: T3, M3 muscarinic receptor (Homo sapiens, UniProt P20309); test: Functional mobilization of intracellular calcium (FLIPR), M3-CHO cells; conditions: for Emax: 100% efficacy = maximum response obtained with the Carbachol control; for M3 Activity: M3-CHO cells, calcium mobilization (FLIPR)
T3 construct: expressed in transfected cells; host or cells: CHO (M3-CHO)
T3 sequence (P20309 whole entry): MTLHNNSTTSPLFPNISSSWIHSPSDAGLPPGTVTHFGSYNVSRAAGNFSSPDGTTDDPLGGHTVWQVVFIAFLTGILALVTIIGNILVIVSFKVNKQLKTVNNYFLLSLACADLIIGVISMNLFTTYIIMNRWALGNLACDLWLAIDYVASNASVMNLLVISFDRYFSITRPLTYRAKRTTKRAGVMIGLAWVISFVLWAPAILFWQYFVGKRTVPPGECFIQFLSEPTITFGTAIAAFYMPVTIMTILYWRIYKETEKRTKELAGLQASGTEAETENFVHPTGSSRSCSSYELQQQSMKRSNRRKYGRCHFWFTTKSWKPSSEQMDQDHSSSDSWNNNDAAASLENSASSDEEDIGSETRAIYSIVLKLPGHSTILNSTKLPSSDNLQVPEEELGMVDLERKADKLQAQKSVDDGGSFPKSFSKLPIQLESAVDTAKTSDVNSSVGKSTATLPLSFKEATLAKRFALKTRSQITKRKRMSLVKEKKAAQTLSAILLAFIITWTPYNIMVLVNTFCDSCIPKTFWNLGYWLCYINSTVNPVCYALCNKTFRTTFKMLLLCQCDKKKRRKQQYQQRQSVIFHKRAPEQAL
Outline: as §1

M4 muscarinic receptor = molecular target: T4, M4 muscarinic receptor (Homo sapiens, UniProt P08173); test: Functional mobilization of intracellular calcium (FLIPR), M4-CHO cells; conditions: for Emax: 100% efficacy = maximum response obtained with the Carbachol control; for M4 Activity: M4-CHO cells, calcium mobilization (FLIPR)
T4 construct: expressed in transfected cells; host or cells: CHO (M4-CHO)
T4 sequence (P08173 1-479): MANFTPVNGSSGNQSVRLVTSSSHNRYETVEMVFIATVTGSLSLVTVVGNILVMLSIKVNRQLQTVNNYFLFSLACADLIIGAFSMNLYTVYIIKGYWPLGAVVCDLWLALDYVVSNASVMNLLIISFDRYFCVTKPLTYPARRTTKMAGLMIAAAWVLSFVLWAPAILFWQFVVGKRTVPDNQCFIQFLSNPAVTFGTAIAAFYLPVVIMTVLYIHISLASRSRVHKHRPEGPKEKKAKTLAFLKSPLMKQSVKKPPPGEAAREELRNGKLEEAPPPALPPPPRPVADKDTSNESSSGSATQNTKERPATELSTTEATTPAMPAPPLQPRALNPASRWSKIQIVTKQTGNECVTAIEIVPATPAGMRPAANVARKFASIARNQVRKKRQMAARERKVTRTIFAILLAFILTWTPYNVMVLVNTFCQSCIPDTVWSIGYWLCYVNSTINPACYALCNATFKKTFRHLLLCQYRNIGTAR
Outline: as §1

SMILES: Cc1ccccc1C1CCN(C2CCOCC2)CC1 [Compound 281]
Emax (M1 muscarinic receptor): 25 to 100% | M1 Activity (M1 muscarinic receptor): + (activity was measured to be greater than 5.0 μM) | Emax (M2 muscarinic receptor): < 25% | M2 Activity (M2 muscarinic receptor): + (activity was measured to be greater than 5.0 μM) | Emax (M3 muscarinic receptor): < 25% | M3 Activity (M3 muscarinic receptor): + (activity was measured to be greater than 5.0 μM) | Emax (M4 muscarinic receptor): 25 to 100% | M4 Activity (M4 muscarinic receptor): +++ (activity was measured to be less than 1.0 μM)

SMILES: Cc1cccc(-c2ccccc2C2CCN([C@H]3C[C@H]4CC[C@H]3C4)CC2)c1 [Compound 283]
Emax (M1 muscarinic receptor): < 25% | M1 Activity (M1 muscarinic receptor): + (activity was measured to be greater than 5.0 μM) | Emax (M2 muscarinic receptor): < 25% | M2 Activity (M2 muscarinic receptor): + (activity was measured to be greater than 5.0 μM) | Emax (M3 muscarinic receptor): < 25% | M3 Activity (M3 muscarinic receptor): + (activity was measured to be greater than 5.0 μM) | Emax (M4 muscarinic receptor): 25 to 100% | M4 Activity (M4 muscarinic receptor): ++ (activity was measured to be from 1.0 μM to 5.0 μM)

SMILES: CNC(=O)c1ccc(-c2ccc(OC)c(C3CCN(C4CCOCC4)CC3)c2)cc1 [Compound 285]
Emax (M1 muscarinic receptor): < 25% | M1 Activity (M1 muscarinic receptor): + (activity was measured to be greater than 5.0 μM) | Emax (M2 muscarinic receptor): < 25% | M2 Activity (M2 muscarinic receptor): + (activity was measured to be greater than 5.0 μM) | Emax (M3 muscarinic receptor): < 25% | M3 Activity (M3 muscarinic receptor): + (activity was measured to be greater than 5.0 μM) | Emax (M4 muscarinic receptor): < 25% | M4 Activity (M4 muscarinic receptor): + (activity was measured to be greater than 5.0 μM)

SMILES: COc1ccc(C#CC2(O)CCCC2)cc1C1CCN([C@H]2C[C@H]3CC[C@H]2C3)CC1 [Compound 287]
Emax (M1 muscarinic receptor): < 25% | M1 Activity (M1 muscarinic receptor): + (activity was measured to be greater than 5.0 μM) | Emax (M2 muscarinic receptor): < 25% | M2 Activity (M2 muscarinic receptor): + (activity was measured to be greater than 5.0 μM) | Emax (M3 muscarinic receptor): < 25% | M3 Activity (M3 muscarinic receptor): + (activity was measured to be greater than 5.0 μM) | Emax (M4 muscarinic receptor): 25 to 100% | M4 Activity (M4 muscarinic receptor): +++ (activity was measured to be less than 1.0 μM)

SMILES: CCOC(=O)N1CCC(N2C3CCC2CC(c2ccccc2OC)C3)CC1 (stereo not shown) [Compound 289, ethyl 4-(3-(2-methoxyphenyl)-8-azabicyclo-[3.2.1]octan-8-yl)piperidine-1-carboxylate]
Emax (M1 muscarinic receptor): < 25% | M1 Activity (M1 muscarinic receptor): + (activity was measured to be greater than 5.0 μM) | Emax (M2 muscarinic receptor): < 25% | M2 Activity (M2 muscarinic receptor): + (activity was measured to be greater than 5.0 μM) | Emax (M3 muscarinic receptor): < 25% | M3 Activity (M3 muscarinic receptor): + (activity was measured to be greater than 5.0 μM) | Emax (M4 muscarinic receptor): 25 to 100% | M4 Activity (M4 muscarinic receptor): ++ (activity was measured to be from 1.0 μM to 5.0 μM)

SMILES: Cc1ccc(F)c(C2CCN(C3C[C@H]4CC[C@H]3C4)CC2)c1 (stereo partly shown) [Compound 290]
Emax (M1 muscarinic receptor): 25 to 100% | M1 Activity (M1 muscarinic receptor): ++ (activity was measured to be from 1.0 μM to 5.0 μM) | Emax (M2 muscarinic receptor): 25 to 100% | M2 Activity (M2 muscarinic receptor): + (activity was measured to be greater than 5.0 μM) | Emax (M3 muscarinic receptor): < 25% | M3 Activity (M3 muscarinic receptor): + (activity was measured to be greater than 5.0 μM) | Emax (M4 muscarinic receptor): 25 to 100% | M4 Activity (M4 muscarinic receptor): ++ (activity was measured to be from 1.0 μM to 5.0 μM)

SMILES: COc1ccccc1C1CCN(CC2=CC[C@@H]3C[C@@H]2C3(C)C)CC1 [Compound 291]
Emax (M1 muscarinic receptor): < 25% | M1 Activity (M1 muscarinic receptor): + (activity was measured to be greater than 5.0 μM) | Emax (M2 muscarinic receptor): < 25% | M2 Activity (M2 muscarinic receptor): + (activity was measured to be greater than 5.0 μM) | Emax (M3 muscarinic receptor): < 25% | M3 Activity (M3 muscarinic receptor): + (activity was measured to be greater than 5.0 μM) | Emax (M4 muscarinic receptor): < 25% | M4 Activity (M4 muscarinic receptor): + (activity was measured to be greater than 5.0 μM)

SMILES: COc1ccc(F)cc1C1(OC)CCN(C[C@H]2C[C@H]3C=C[C@H]2C3)CC1 [Compound 292]
Emax (M1 muscarinic receptor): 25 to 100% | M1 Activity (M1 muscarinic receptor): ++ (activity was measured to be from 1.0 μM to 5.0 μM) | Emax (M2 muscarinic receptor): 25 to 100% | M2 Activity (M2 muscarinic receptor): ++ (activity was measured to be from 1.0 μM to 5.0 μM) | Emax (M3 muscarinic receptor): < 25% | M3 Activity (M3 muscarinic receptor): + (activity was measured to be greater than 5.0 μM) | Emax (M4 muscarinic receptor): 25 to 100% | M4 Activity (M4 muscarinic receptor): +++ (activity was measured to be less than 1.0 μM)

SMILES: CCOC(=O)N1CCC(CN2CCC(OC)(c3cc(F)ccc3OC)CC2)CC1 [Compound 295]
Emax (M1 muscarinic receptor): 25 to 100% | M1 Activity (M1 muscarinic receptor): +++ (activity was measured to be less than 1.0 μM) | Emax (M2 muscarinic receptor): 25 to 100% | M2 Activity (M2 muscarinic receptor): ++ (activity was measured to be from 1.0 μM to 5.0 μM) | Emax (M3 muscarinic receptor): < 25% | M3 Activity (M3 muscarinic receptor): + (activity was measured to be greater than 5.0 μM) | Emax (M4 muscarinic receptor): 25 to 100% | M4 Activity (M4 muscarinic receptor): +++ (activity was measured to be less than 1.0 μM)

Continued, in another order:

Emax (M1 muscarinic receptor): < 25% | Emax (M2 muscarinic receptor): < 25% | Emax (M3 muscarinic receptor): < 25% | Emax (M4 muscarinic receptor): 25 to 100%
SMILES: CCC(=O)c1ccc(OC)c(C2CCN([C@H]3C[C@H]4CC[C@H]3C4)CC2)c1 [Compound 282]
M1 Activity (M1 muscarinic receptor): + (activity was measured to be greater than 5.0 μM) | M2 Activity (M2 muscarinic receptor): + (activity was measured to be greater than 5.0 μM) | M3 Activity (M3 muscarinic receptor): + (activity was measured to be greater than 5.0 μM) | M4 Activity (M4 muscarinic receptor): ++ (activity was measured to be from 1.0 μM to 5.0 μM)

Emax (M1 muscarinic receptor): 25 to 100% | Emax (M2 muscarinic receptor): < 25% | Emax (M3 muscarinic receptor): 25 to 100% | Emax (M4 muscarinic receptor): 25 to 100%
SMILES: COc1ccc(-c2ccc3c(c2)OCO3)cc1C1CCN(C2C[C@@H]3CC[C@@H]2C3)CC1 (stereo partly shown) [Compound 284]
M1 Activity (M1 muscarinic receptor): + (activity was measured to be greater than 5.0 μM) | M2 Activity (M2 muscarinic receptor): + (activity was measured to be greater than 5.0 μM) | M3 Activity (M3 muscarinic receptor): + (activity was measured to be greater than 5.0 μM) | M4 Activity (M4 muscarinic receptor): + (activity was measured to be greater than 5.0 μM)

Emax (M1 muscarinic receptor): < 25% | Emax (M2 muscarinic receptor): < 25% | Emax (M3 muscarinic receptor): < 25% | Emax (M4 muscarinic receptor): 25 to 100%
SMILES: Fc1ccc(-c2ccccc2C2CCN([C@H]3C[C@H]4CC[C@H]3C4)CC2)cc1 [Compound 294]
M1 Activity (M1 muscarinic receptor): + (activity was measured to be greater than 5.0 μM) | M2 Activity (M2 muscarinic receptor): + (activity was measured to be greater than 5.0 μM) | M3 Activity (M3 muscarinic receptor): + (activity was measured to be greater than 5.0 μM) | M4 Activity (M4 muscarinic receptor): ++ (activity was measured to be from 1.0 μM to 5.0 μM)

Emax (M1 muscarinic receptor): 25 to 100% | Emax (M2 muscarinic receptor): < 25% | Emax (M3 muscarinic receptor): < 25% | Emax (M4 muscarinic receptor): 25 to 100%
SMILES: COc1ccc(C(F)(F)F)cc1C1CCN(C2C[C@H]3CC[C@H]2C3)CC1 (stereo partly shown) [Compound 296]
M1 Activity (M1 muscarinic receptor): ++ (activity was measured to be from 1.0 μM to 5.0 μM) | M2 Activity (M2 muscarinic receptor): + (activity was measured to be greater than 5.0 μM) | M3 Activity (M3 muscarinic receptor): + (activity was measured to be greater than 5.0 μM) | M4 Activity (M4 muscarinic receptor): ++ (activity was measured to be from 1.0 μM to 5.0 μM)

Emax (M1 muscarinic receptor): 25 to 100% | Emax (M2 muscarinic receptor): < 25% | Emax (M3 muscarinic receptor): < 25% | Emax (M4 muscarinic receptor): 25 to 100%
SMILES: CCOC(=O)N1CCC(CN2CCC(c3cc(-c4ccc5c(c4)OCO5)ccc3OC)CC2)CC1 [Compound 297]
M1 Activity (M1 muscarinic receptor): ++ (activity was measured to be from 1.0 μM to 5.0 μM) | M2 Activity (M2 muscarinic receptor): + (activity was measured to be greater than 5.0 μM) | M3 Activity (M3 muscarinic receptor): + (activity was measured to be greater than 5.0 μM) | M4 Activity (M4 muscarinic receptor): ++ (activity was measured to be from 1.0 μM to 5.0 μM)

Source: patent US7880007B2, “Bicyclic substituted phenyl piperidine modulators of muscarinic receptors” (Vertex Pharmaceuticals Incorporated, priority 2004, dated 2011)
